Experimental data published in ChEMBL document CHEMBL1955803, “Preclinical in vivo evaluation of efficacy, pharmacokinetics, and pharmacodynamics of a novel MEK1/2 kinase inhibitor RO5068760 in multiple tumor models” (Mol Cancer Ther, 2010).
pIC50: −log10 of the molar value. Calls of active or inactive are those of the source. The calls are words filed in the database; no cut-off is given here.

How the values were obtained:
[1] = molecular target: T1, Dual specificity mitogen-activated protein kinase kinase 1 (Homo sapiens, UniProt Q02750); assay: Inhibition of MEK1
T1 sequence (Q02750 whole entry): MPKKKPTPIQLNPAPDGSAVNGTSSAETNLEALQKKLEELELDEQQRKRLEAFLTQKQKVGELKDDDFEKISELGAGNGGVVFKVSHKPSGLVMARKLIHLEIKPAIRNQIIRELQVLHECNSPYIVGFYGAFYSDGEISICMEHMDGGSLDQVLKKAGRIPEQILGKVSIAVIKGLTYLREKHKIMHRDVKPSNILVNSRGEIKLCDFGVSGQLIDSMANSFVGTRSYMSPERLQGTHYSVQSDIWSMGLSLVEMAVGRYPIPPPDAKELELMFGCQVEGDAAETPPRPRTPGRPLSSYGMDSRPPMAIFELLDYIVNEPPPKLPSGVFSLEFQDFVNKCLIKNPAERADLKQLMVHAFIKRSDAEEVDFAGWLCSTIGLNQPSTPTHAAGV

[2] = molecular target: T1, Dual specificity mitogen-activated protein kinase kinase 1; assay: Inhibition of MEK1 in human HT-29 cells assessed as inhibition of ERK phosphorylation by Western blot analysis; assay type: cell-based
[3] = molecular target: T1, Dual specificity mitogen-activated protein kinase kinase 1; assay: Inhibition of MEK1 in human MIA PaCa-2 cells assessed as inhibition of ERK phosphorylation by Western blot analysis; assay type: cell-based
[4] = Antitumor activity against human LOX cells expressing B-Raf V600E mutant xenografted in nude mouse assessed as tumor growth inhibition at 12.5 mg/kg, po bid; assay type: functional; settings: read-out: GI
[5] = Antitumor activity against human LOX cells expressing B-Raf V600E mutant xenografted in nude mouse assessed as tumor growth inhibition at 25 mg/kg, po bid; assay type: functional; settings: read-out: GI
[6] = Antitumor activity against human LOX cells expressing B-Raf V600E mutant xenografted in nude mouse assessed as tumor growth inhibition at 50 mg/kg, po bid; assay type: functional; settings: read-out: GI
[7] = Antitumor activity against human LOX cells expressing B-Raf V600E mutant xenografted in nude mouse assessed as tumor growth inhibition at 500 mg/kg, po administered weekly once; assay type: functional; settings: read-out: GI
[8] = system: HT-29; assay: Antitumor activity against human HT-29 cells expressing B-Raf V600E mutant xenografted in nude mouse assessed as tumor growth inhibition at 100 mg/kg, po bid; assay type: functional; settings: read-out: GI
[9] = Plasma concentration in human LOX cells expressing B-Raf V600E mutant xenografted nude mouse at 100 mg/kg, po after 2 hrs; assay type: ADME, organism-based; set-up: dose 100 mg/kg, route oral
[10] = Drug level in human HT-29 cells expressing B-Raf V600E mutant xenografted nude mouse tumor at 50 mg/kg, po after 4 hrs; assay type: ADME, organism-based, Neoplasm; set-up: dose 50 mg/kg, route oral; settings: read-out: Drug uptake
[11] = system: Mus musculus; assay: Inhibition of MEK-mediated ERK phosphorylation in tumor of human HT-29 cells expressing B-Raf V600E mutant xenografted nude mouse at 100 mg/kg, po after 4 hrs by Western blot analysis relative to control; assay type: functional; settings: HT-29, 4 h
[12] = Drug level in human HT-29 cells expressing B-Raf V600E mutant xenografted nude mouse tumor at 100 mg/kg, po after 12 hrs; assay type: ADME, organism-based, Neoplasm; set-up: dose 100 mg/kg, route oral; settings: read-out: Drug uptake
[13] = AUC (0 to 12 hrs) in human LOX cells expressing B-Raf V600E mutant xenografted nude mouse at 6.25 mg/kg, po bid; assay type: ADME, organism-based; set-up: time < 12 hr, dose 6.25 mg/kg, route oral; settings: in vivo
[14] = Cmax in human MIAPaCa2 cells expressing K-Ras G12C mutant xenografted nude mouse at 200 mg/kg, po qd; assay type: ADME, organism-based, MIA PaCa-2; set-up: dose 200 mg/kg, route oral; settings: in vivo
[15] = molecular target: T2, Dual specificity mitogen-activated protein kinase kinase; MEK1/2 (Homo sapiens) (UniProt P36507+Q02750); settings: HT-29, 2 to 10 uM
T2 sequence (P36507 whole entry, looked up): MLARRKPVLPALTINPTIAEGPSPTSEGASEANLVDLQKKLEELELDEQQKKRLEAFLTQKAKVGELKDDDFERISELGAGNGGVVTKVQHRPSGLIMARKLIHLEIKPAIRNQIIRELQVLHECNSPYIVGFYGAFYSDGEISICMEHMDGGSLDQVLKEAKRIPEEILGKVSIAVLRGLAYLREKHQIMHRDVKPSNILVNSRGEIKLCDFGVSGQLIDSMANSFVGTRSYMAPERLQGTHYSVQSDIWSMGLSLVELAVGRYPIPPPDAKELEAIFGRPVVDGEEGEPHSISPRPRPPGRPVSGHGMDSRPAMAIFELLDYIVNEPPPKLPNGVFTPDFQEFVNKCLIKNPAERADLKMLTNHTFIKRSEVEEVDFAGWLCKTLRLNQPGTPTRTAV
T2 sequence (Q02750 whole entry, looked up): as the sequence (Q02750 whole entry) above
Description: Inhibition of MEK1/2 in human HT-29 cells assessed as down regulation of CDK4/cyclin D1 expression at 2 to 10 uM by Western blot analysis

[16] = molecular target: T2, Dual specificity mitogen-activated protein kinase kinase; MEK1/2 (Homo sapiens); settings: HT-29, 2 to 10 uM; remark: listed apart in the source
Description: Inhibition of MEK1/2 in human HT-29 cells assessed as upregulation of p27 expression at 2 to 10 uM by Western blot analysis

## C[C@@H](c1ccccc1)[C@@H](C(=O)Nc1ccc(I)cc1F)N1C(=O)N[C@H](c2ccc(OC[C@H](O)CO)cc2)C1=O
[1]
  pIC50: 7.60
[2]
  pIC50: 7.92
[3]
  pIC50: 7.16
[4]
  inhibition in vivo at 12.5 mg/kg: 99%
[5]
  inhibition in vivo at 25 mg/kg: > 100%
[6]
  inhibition in vivo at 50 mg/kg: > 100%
[7]
  inhibition in vivo at 500 mg/kg: > 100%
[8]
  inhibition in vivo at 100 mg/kg: 95%
[9]
  concentration at 2 h: 6300 ng/mL
[10]
  concentration at 4 h: 1490 ng/g
[11]
  inhibition in vivo at 100 mg/kg: 79%
[12]
  concentration at 12 h: 321 ng/g
[13]
  AUC at 12 h: 3970 ng·h/mL
[14]
  Cmax: 15500 ng/mL
[15]
  inhibition: Active
[16]
  inhibition: Active
